Results as given in patent US20220056019A1, “FARNESOID X RECEPTOR AGONISTS AND USES THEREOF” (Metacrine, Inc., priority 2018, published 2022).

molecular target: T1, hFXR (Homo sapiens, UniProt Q96RI1); experiment: In Vitro FXR Assay (TK): TK-ECRE-luc reporter in transfected CV-1 cells; format: cell-based; conditions: 18 hrs incubation, luminescence
T1 construct: expressed in transfected cells; host or cells: CV-1 cells
T1 sequence (Q96RI1 1-486): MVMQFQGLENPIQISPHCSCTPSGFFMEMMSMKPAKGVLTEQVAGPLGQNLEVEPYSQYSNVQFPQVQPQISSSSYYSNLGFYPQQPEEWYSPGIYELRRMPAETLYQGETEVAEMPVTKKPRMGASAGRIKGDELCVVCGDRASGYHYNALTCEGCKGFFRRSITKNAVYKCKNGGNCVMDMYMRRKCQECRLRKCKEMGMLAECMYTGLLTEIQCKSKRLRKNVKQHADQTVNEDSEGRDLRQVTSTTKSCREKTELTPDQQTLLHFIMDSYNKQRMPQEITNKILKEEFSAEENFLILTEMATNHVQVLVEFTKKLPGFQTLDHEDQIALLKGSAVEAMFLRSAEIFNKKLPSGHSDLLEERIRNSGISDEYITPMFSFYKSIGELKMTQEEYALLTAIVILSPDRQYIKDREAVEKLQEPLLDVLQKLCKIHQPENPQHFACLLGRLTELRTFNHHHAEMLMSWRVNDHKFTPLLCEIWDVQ
T1 sequence (P19793 1-462 partner): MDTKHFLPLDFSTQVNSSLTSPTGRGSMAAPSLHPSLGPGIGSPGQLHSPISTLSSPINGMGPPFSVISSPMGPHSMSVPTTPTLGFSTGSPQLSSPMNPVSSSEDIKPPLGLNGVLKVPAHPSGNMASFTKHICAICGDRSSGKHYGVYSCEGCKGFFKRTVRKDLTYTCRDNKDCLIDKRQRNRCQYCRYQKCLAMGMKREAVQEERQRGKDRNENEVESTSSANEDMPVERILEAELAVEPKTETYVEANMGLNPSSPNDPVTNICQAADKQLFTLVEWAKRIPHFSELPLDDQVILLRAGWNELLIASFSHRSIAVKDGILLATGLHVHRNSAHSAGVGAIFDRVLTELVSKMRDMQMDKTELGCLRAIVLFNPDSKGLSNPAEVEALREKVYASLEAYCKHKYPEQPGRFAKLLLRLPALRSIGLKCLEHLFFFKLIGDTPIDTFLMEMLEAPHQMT
In short: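 Luciferase read-out from lysed CV-1 cells carrying transfected hFXR, hRXR, TK-ECRE-luc and pCMX-YFP. Test compounds, DMSO serial dilutions, were incubated with the cells for 18 h before lysis. Cells grew in charcoal-stripped serum medium.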

EC50, 50 to 1000 nM:
COc1ccc([C@H]2CC[C@H](CN(c3cc(-c4cnn(C(F)(F)F)c4)ccn3)C(=O)[C@H]3CC[C@H](OC(=O)NCC(C)(C)O)CC3)CC2)cc1C [Compound 2.58, trans-4-((((trans)-4-(4-Methoxy-3-methylphenyl)cyclohexyl)methyl) (4-(1-(trifluoromethyl)-1H-pyrazol-4-yl)pyridin-2-yl)carbamoyl)cyclohexyl (2-hydroxy-2-methylpropyl)carbamate]
CCc1ncc(-c2ccnc(N(CC34CCC(c5ccc(OC)c(C)c5)(CC3)CC4)C(=O)[C@H]3CC[C@H](OC(=O)N4CC(CO)C4)CC3)c2)s1 [Compound 4.37, 4-((4-(2-Ethylthiazol-5-yl)pyridin-2-yl)((4-(4-methoxy-3-methylphenyl)bicyclo[2.2.2]octan-1-yl)methyl)carbamoyl) cyclohexyl3-(hydroxymethyl)azetidine- trans-1-carboxylate]
CCc1nc(-c2ccnc(N(C[C@H]3CC[C@H](c4ccc(OC)c(C)c4)CC3)C(=O)[C@H]3CC[C@H](OC(=O)N4CCN(C)CC4)CC3)c2)co1 [Compound 2.48, trans-4-((4-(2-Ethyloxazol-4-yl)pyridin-2-yl)((trans-4-(4-methoxy-3-methylphenyl)cyclohexyl)methyl)carbamoyl)cyclohexyl 4-methylpiperazine-1-carboxylate]
COc1ccc([C@H]2CC[C@H](CN(c3cc(-c4coc(C(C)C)n4)ccn3)C(=O)[C@H]3CC[C@H](OC(=O)NCC(C)(C)CO)CC3)CC2)nc1C [Compound 1.01, trans-4-((4-(2-Isopropyloxazol-4-yl)pyridin-2-yl)((trans-4-(5-methoxy-6-methylpyridin-2-yl)cyclohexyl)methyl)carbamoyl) cyclohexyl (3-hydroxy-2,2-dimethylpropyl)carbamate]
COc1ccc([C@H]2CC[C@H](CN(c3cccc(-c4cnn(C(C)C)c4)c3)C(=O)[C@H]3CC[C@H](NC(=O)CCCO)CC3)CC2)cc1C [Compound 14, trans-4-(4-Hydroxybutanamido)-N-(3-(1-isopropyl-1H-pyrazol-4-yl)phenyl)-N-((trans-4-(4-methoxy-3-methylphenyl)cyclohexyl)methyl)cyclohexanecarboxamide]

EC50, ≤ 50 nM:
COc1ccc(C23CCC(CN(c4ccc(F)c(-c5cnn(C(C)C)c5)c4F)C(=O)[C@H]4CC[C@H](OC(=O)N5CC(O)C5)CC4)(CC2)CC3)cc1C [Compound 25.15, 4-((2,4-Difluoro-3-(1-isopropyl-1H-pyrazol-4-yl)phenyl)((4-(4-methoxy-3-methylphenyl)bicyclo[2.2.2]octan-1-yl)methyl)carbamoyl)cyclohexyl trans-3-hydroxyazetidine-1-carboxylate]
COc1ccc(C23CCC(CN(c4cc(-c5cnc(C(C)C)s5)ccn4)C(=O)[C@H]4CC[C@H](OC(=O)N5CC(S(C)(=O)=O)C5)CC4)(CC2)CC3)cc1C [Compound 4.34, 4-((4-(2-Isopropylthiazol-5-yl)pyridin-2-yl)((4-(4-methoxy-3-methylphenyl)bicyclo[2.2.2]octan-1-yl)methyl)carbamoyl)(trans-cyclohexyl) 3-(methylsulfonyl)azetidine-1-carboxylate]
COc1ccc([C@H]2CC[C@H](CN(c3cccc(-c4cnn(C(C)C)c4)c3)C(=O)[C@H]3CC[C@H](NC(=O)OC4CCOCC4)CC3)CC2)cc1C [Compound 6.06, Tetrahydro-2H-pyran-4-yl (trans-4-((3-(1-isopropyl-1H-pyrazol-4-yl)phenyl)((trans-4-(4-methoxy-3-methylphenyl)cyclohexyl)meth-yl)carbamoyl)cyclohexyl)carbamate]
CCOC(=O)N[C@H]1CC[C@H](C(=O)N(CC23CCC(c4ccc(OC)c(C)c4)(CC2)CC3)c2cc(-c3cnn(C(C)C)c3)ccn2)CC1 [Compound 8.01, (trans)-Ethyl (4-((4-(1-isopropyl-1H-pyrazol-4-yl)pyridin-2-yl)((4-(4-methoxy-3-methylphenyl)bicyclo[2.2.2]octan-1-yl)methyl)carbamoyl)cyclohexyl)car-bamate]
O=C(O[C@H]1CC[C@H](C(=O)N(C[C@H]2CC[C@H](c3cc4ccccn4c3)CC2)c2cccc(-c3cnc(C4CC4)s3)c2)CC1)N1CC(O)C1 [Compound 5.14, trans-4-((3-(2-Cyclopropylthiazol-5-yl)phenyl)((trans-4-(indolizin-2-yl)cyclohexyl)methyl)carbamoyl) cyclohexyl 3-hydroxyazetidine-1-carboxylate]
CCc1nc(-c2ccnc(N(C[C@H]3CC[C@H](c4ccc(OC)c(C)c4)CC3)C(=O)[C@H]3CC[C@H](OC(=O)N4CC(O)C4)CC3)c2)co1 [Compound 2.36, trans-4-((4-(2-Ethyloxazol-4-yl)pyridin-2-yl)((trans-4-(4-methoxy-3-methylphenyl)cyclohexyl)methyl)carbamoyl)cyclohexyl 3-hydroxyazetidine-1-carboxylate]
CCCC1CN(C(=O)O[C@H]2CC[C@H](C(=O)N(CC34CCC(c5ccc(OC)c(C)c5)(CC3)CC4)c3cc(-c4cnn(C(C)C)c4)ccn3)CC2)C1 [Compound 4.55, 4-((4-(1-Isopropyl-1H-pyrazol-4-yl)pyridin-2-yl) ((4-(4-methoxy-3-methylphenyl)bicyclo [2.2.2]octan-1-yl)methyl)carbamoyl)cyclohexyl trans-3-propylazetidine-1-carboxylate]
COCCNC(=O)O[C@H]1CC[C@H](C(=O)N(CC23CCC(c4ccc(OC)c(C)c4)(CC2)CC3)c2cc(-c3cnn(C(C)C)c3)ccn2)CC1 [Compound 4.49, 4-((4-(1-Isopropyl-1H-pyrazol-4-yl)pyridin-2-yl) ((4-(4-methoxy-3-methylphenyl)bicyclo [2.2.2]octan-1-yl)methyl)carbamoyl)cyclohexyl(2-methoxyethyl)trans-carbamate]
COCC1CN(C(=O)O[C@H]2CC[C@H](C(=O)N(CC34CCC(c5ccc(OC)c(C)c5)(CC3)CC4)c3cc(-c4cnn(C(C)C)c4)ccn3)CC2)C1 [Compound 4.41, 4-((4-(1-Isopropyl-1H-pyrazol-4-yl)pyridin-2-yl) ((4-(4-methoxy-3-methylphenyl)bicyclo [2.2.2]octan-1-yl)methyl)carbamoyl)cyclohexyl trans-3-(methoxymethyl) azetidine-1-carboxylate]
COc1ccc([C@H]2CC[C@H](CN(c3cc(-c4cnn(C(C)C)c4)ccn3)C(=O)[C@H]3CC[C@H](OC(=O)NC4COC4)CC3)CC2)cc1C [Compound 2.51]
COc1ccc(C23CCC(CN(c4cc(-c5cnn(C6CCCC6)c5)ccn4)C(=O)[C@H]4CC[C@H](OC(=O)N5CC(CO)C5)CC4)(CC2)CC3)cc1C [Compound 23.09, 4-((4-(1-Cyclopentyl-1H-pyrazol-4-yl)pyridin-2-yl)((4-(4-methoxy-3-methylphenyl)bicyclo[2.2.2]octan-1-yl)methyl)carba-moyl)(trans-cyclohexyl) 3-(hydroxymethyl)azetidine-1-carboxylate]
CCS(=O)(=O)NC[C@H]1CC[C@H](C(=O)N(C[C@H]2CC[C@H](c3ccc(OC)c(C)c3)CC2)c2cccc(-c3cnn(C(C)C)c3)c2)CC1 [Compound 12, (trans)-4-(Ethylsulfonamidomethyl)-N-(3-(1-isopropyl-1H-pyrazol-4-yl)phenyl)-N-(((trans)-4-(4-methoxy-3-methylphenyl)cyclohexyl)methyl)cyclohexanecarboxamide]
COc1ccc([C@H]2CC[C@H](CN(c3cc(-c4cnc(C5CC5)s4)ccn3)C(=O)[C@H]3CC[C@H](OC(=O)NC(C)C)CC3)CC2)cc1C [Compound 2.45, trans-4-((4-(2-Cyclopropylthiazol-5-yl)pyridin-2-yl)(((trans)-4-(4-methoxy-3-methylphenyl)cyclohexyl)methyl)carbamoyl)cyclohexyl isopropylcarbamate]
COc1ccc(C23CCC(CN(c4cncc(-c5cnn(C(C)C)c5)n4)C(=O)[C@H]4CC[C@H](OC(=O)N5CC(O)C5)CC4)(CC2)CC3)cc1C [Compound 25.28, 4-((6-(1-Isopropyl-1H-pyrazol-4-yl)pyrazin-2-yl)((4-(4-methoxy-3-methylphenyl)bicyclo[2.2.2]octan-1-yl)methyl)carbamoyl)cyclohexyl trans-3-hydroxyazetidine-1-carboxylate]
COc1ccc([C@H]2CC[C@H](CN(c3cccc(-c4cnn(C(C)C)c4)c3)C(=O)[C@H]3CC[C@H](NC(=O)C(C)C)CC3)CC2)cc1C [Compound 10.06, trans-4-Isobutyramido-N-(3-(1-isopropyl-1H-pyrazol-4-yl)phenyl)-N-((trans-4-(4-methoxy-3-methylphenyl)cyclohexyl)methyl) cyclohexanecarboxamide]
